The source of these data is patent publication US10865191B2, “Heterocyclic compounds useful as modulators of TNF alpha” (BRISTOL-MYERS SQUIBB COMPANY, priority 2015, dated 2020).

Broadly, the pIC50 is −log10 of the IC50, conventionally taken in molar units.

This experiment deals with TNFα (Homo sapiens, UniProt P01375). Kind of experiment: TNF induced HEK-Blue assay (NF-kB-driven secreted alkaline phosphatase reporter). Conditions: TNFα 0.5 ng/mL, HEK-Blue-CD40L cells, 18 h. It counts as cell-based. In a few lines: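 HEK-Blue-CD40L cells (NF-kB-driven SEAP reporter), 20,000/well, added after 30 min pre-incubation of compound (0.004–25 μM final) with TNFα 0.5 ng/mL final at 37 °C; 18 h incubation. SEAP read with QUANTI-Blue at 620 nm; IC50 from 4-parameter logistic fit, normalized to unstimulated and stimulated DMSO controls.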

Setting [1] is: read-out: TNF induced HEK-Blue assay IC50 value.
[2] abbreviates: TNF induced HEK-Blue assay IC50 value.

pIC50: −log10 of the molar value. Like-named read-outs stand apart in the source and are kept apart here.

Sequence of TNFα (P01375 77-233 limits assumed): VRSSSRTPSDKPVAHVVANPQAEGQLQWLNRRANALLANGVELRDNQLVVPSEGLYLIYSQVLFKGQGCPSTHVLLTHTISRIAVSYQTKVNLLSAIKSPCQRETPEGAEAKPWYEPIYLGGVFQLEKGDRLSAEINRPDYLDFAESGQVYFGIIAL

For the compound `Cc1nc2ccc(-c3ccc(C(C)(C)O)cc3)cc2c(N[C@H](C)c2ccccc2F)c1Cl` [Example 500, (R)-2-(4-(3-chloro-4-((1-(2-fluorophenyl)ethyl)amino)-2-methylquinolin-6-yl)phenyl)propan-2-ol], the pIC50 under setting [1] is above 6.00.

Take `C[C@@H](Nc1c(Cl)cnc2ccc(-c3cnc(N4CCN([C@@H](CNC(=O)OC(C)(C)C)C(=O)O)CC4)nc3)cc12)c1ccccc1F` [Example 93, (S)-3-((tert-butoxycarbonyl)amino)-2-(4-(5-(3-chloro-4-(((R)-1-(2-fluorophenyl)ethyl)amino)quinolin-6-yl)pyrimidin-2-yl)piperazin-1-yl)propanoic acid]: under setting [1], the pIC50 is 5.00 to 6.00. The same measure, in the same setting: then `CC(C)(O)c1ncc(-c2ccc3ncc(Cl)c(NC(c4ccccc4F)C(C)(C)F)c3c2)cn1` (racemic) [Example 229, 2-(5-(3-chloro-4-((2-fluoro-1-(2-fluorophenyl)-2-methylpropyl)amino)quinolin-6-yl)pyrimidin-2-yl)propan-2-ol], with 4.60 to 5.00. For `Cc1nc2ccc(-c3cnc(N4CCN(CC(=O)O)CC4)nc3)cc2c(N[C@H](C)c2cc(-c3cn[nH]c3)ccc2F)c1Cl` [Example 342, (R)-2-(4-(5-(3-chloro-4-((1-(2-fluoro-5-(1H-pyrazol-4-yl)phenyl)ethyl)amino)-2-methylquinolin-6-yl)pyrimidin-2-yl)piperazin-1-yl)acetic acid], the pIC50 under setting [1] is above 6.00.

With `C[C@@H](Nc1c(Cl)cnc2ccc(-c3cnc(C(C)(C)O)nc3)cc12)c1cc(-c2cnn(CC(=O)O)c2)ccc1F` [Example 346, (R)-2-(4-(3-(1-((3-chloro-6-(2-(2-hydroxypropan-2-yl)pyrimidin-5-yl)quinolin-4-yl)amino)ethyl)-4-fluorophenyl)-1H-pyrazol-1-yl)acetic acid], under setting [1], the pIC50 was 5.00 to 6.00. With `C[C@H](Nc1c(Cl)cnc2cnc(-c3cnc(C(C)(C)O)nc3)cc12)c1ccccc1F` (single isomer, unassigned) [Example 234], under setting [2], the pIC50 was 4.60 to 5.00. Consider `Cc1nc2cc(F)c(-c3ccc(=O)[nH]c3)cc2c(N[C@H](C)c2cc(Br)ccc2F)c1Cl` [Example 449, (R)-5-(4-((1-(5-bromo-2-fluorophenyl)ethyl)amino)-3-chloro-7-fluoro-2-methylquinolin-6-yl)pyridin-2(1H)-one], for which the pIC50 under setting [1] is above 6.00.

Take `CC(C)(O)c1ncc(-c2ccc3ncc(Cl)c(NN4CCc5ccccc54)c3c2)cn1` [Example 47, 2-(5-(3-chloro-4-(indolin-1-ylamino)quinolin-6-yl)pyrimidin-2-yl)propan-2-ol]: the pIC50 under setting [1] is above 6.00. Still for that read-out and setting: then `CCNCc1ccc(-c2ccc3ncc(Cl)c(N[C@H](C)c4ccccc4F)c3c2)cc1` [Example 29, (R)-3-chloro-6-(4-((ethylamino)methyl)phenyl)-N-(1-(2-fluorophenyl)ethyl)quinolin-4-amine], with 5.00 to 6.00.

For `Cc1nc2cc(F)c(-c3cnc(C(C)(C)O)nc3)nc2c(N[C@H](C)c2cc(C(O)CO)ccc2F)c1Cl` (stereo partly drawn) [Example 570, 1-(3-((R)-1-((3-chloro-7-fluoro-6-(2-(2-hydroxypropan-2-yl)pyrimidin-5-yl)-2-methyl-1,5-naphthyridin-4-yl)amino)ethyl)-4-fluorophenyl)ethane-1,2-diol], the pIC50 under setting [1] is 5.00 to 6.00. The same measure, in the same setting: in the case of `CC(C)(O)c1ncc(-c2ccc3ncc(Cl)c(N[C@H](CCF)c4ccccc4F)c3c2)cn1` (single isomer, unassigned) [Example 238] it was above 6.00. Under setting [2], `C[C@@H](Nc1c(Cl)cnc2ccc(-c3cnc(C(C)(C)O)nc3)cc12)c1cc(N2CCCC2)ccc1F` [Example 364, (R)-2-(5-(3-chloro-4-((1-(2-fluoro-5-(pyrrolidin-1-yl)phenyl)ethyl)amino)quinolin-6-yl)pyrimidin-2-yl)propan-2-ol] showed a pIC50 above 6.00.

For the compound `C[C@@H](Nc1c(Cl)cnc2ccc(-c3ccc(CC(N)C(=O)O)cc3)cc12)c1ccccc1F` (mixture of isomers) [Example 116, 2-amino-3-(4-(3-chloro-4-(((R)-1-(2-fluorophenyl)ethyl)amino)quinolin-6-yl)phenyl)propanoic acid], under setting [1], the pIC50 is 5.00 to 6.00.

In the case of `C[C@@H](Nc1c(Cl)cnc2ccc(-c3cnc(C(C)(C)O)nc3)cc12)c1cc(-c2ncn[nH]2)ccc1F` [Example 414, (R)-2-(5-(3-chloro-4-((1-(2-fluoro-5-(1H-1,2,4-triazol-5-yl)phenyl)ethyl)amino)quinolin-6-yl)pyrimidin-2-yl)propan-2-ol], the pIC50 under setting [1] is above 6.00.

As to `Cc1ccc(F)c([C@H](Nc2c(Cl)c(C)nc3ccc(-c4cnc(C(C)(C)O)nc4)cc23)C(F)F)c1` [Example 351, (S)-2-(5-(3-chloro-4-((2,2-difluoro-1-(2-fluoro-5-methylphenyl)ethyl)amino)-2-methylquinolin-6-yl)pyrimidin-2-yl)propan-2-ol], the pIC50 under setting [1] was above 6.00. Regarding `Cc1nc2ccc(-c3ccc(C(C)(C)O)cc3)cc2c(NC(C)c2cccs2)c1Cl` (centres unmarked) [Example 502, 2-(4-(3-chloro-2-methyl-4-((1-(thiophen-2-yl)ethyl)amino)quinolin-6-yl)phenyl)propan-2-ol], the pIC50 under setting [1] was 5.00 to 6.00. Same read-out and setting: in the case of `CC(Nc1c(Cl)cnc2cc(F)c(-c3ccc(C(O)CO)cc3)cc12)c1ccccc1F` (centres unmarked) [Example 291, 1-(4-(3-chloro-7-fluoro-4-((1-(2-fluorophenyl)ethyl)amino)quinolin-6-yl)phenyl)ethane-1,2-diol] it was above 6.00. Same read-out and setting: then `Cc1nc2ccc(-c3cnc(C(C)(C)O)nc3)cc2c(-c2ccccc2-c2ccccc2)c1Cl` [Example 353, 2-(5-(4-([1,1′-biphenyl]-2-yl)-3-chloro-2-methylquinolin-6-yl)pyrimidin-2-yl)propan-2-ol], with 5.00 to 6.00; and `CC(Nc1c(Cl)cnc2cc(F)c(-c3cnc(C(O)CO)nc3)cc12)c1ccccc1F` (racemic) [Example 300, 1-(5-(3-chloro-7-fluoro-4-((1-(2-fluorophenyl)ethyl)amino)quinolin-6-yl)pyrimidin-2-yl)ethane-1,2-diol], with above 6.00.

As to `CC(C)(O)c1ncc(-c2cc3c(NC4(c5ccccc5F)CC4)c(Cl)cnc3cc2F)cn1` [Example 278, 2-(5-(3-chloro-7-fluoro-4-((1-(2-fluorophenyl)cyclopropyl)amino)quinolin-6-yl)pyrimidin-2-yl)propan-2-ol], under setting [1], the pIC50 is above 6.00.

In the case of `Cc1nc2ccc(-c3ccc(C(C)(C)O)cc3)cc2c(NC(C)c2ccsc2)c1Cl` (centres unmarked) [Example 503, 2-(4-(3-chloro-2-methyl-4-((1-(thiophen-3-yl)ethyl)amino)quinolin-6-yl)phenyl)propan-2-ol], the pIC50 under setting [1] is 5.00 to 6.00. Still for that read-out and setting: then `Cc1nc2c(F)cc(-c3cnc(C(C)(C)O)nc3)cc2c(NC(C)c2ccccc2F)c1Cl` (racemic) [Example 298, 2-(5-(3-chloro-8-fluoro-4-((1-(2-fluorophenyl)ethyl)amino)-2-methylquinolin-6-yl)pyrimidin-2-yl)propan-2-ol], with above 6.00. Still for that read-out and setting: then `CC(Nc1c(Cl)cnc2c(Cl)cc(Br)cc12)c1ccccc1F` (racemic) [Example 122, 6-bromo-3,8-dichloro-N-(1-(2-fluorophenyl)ethyl)quinolin-4-amine], with 4.60 to 5.00. Still for that read-out and setting: then `Cc1cncc(-c2ccc(F)c([C@@H](C)Nc3c(Cl)cnc4ccccc34)c2)c1` [Example 507, (R)-3-chloro-N-(1-(2-fluoro-5-(5-methylpyridin-3-yl)phenyl)ethyl)quinolin-4-amine], with above 6.00. For `CC(C)(O)c1ncc(-c2cc3c(N[C@@H](c4cc(C(N)=O)ccc4F)C(F)F)c(Cl)cnc3cc2F)cn1` [Example 391, (S)-3-(1-((3-chloro-7-fluoro-6-(2-(2-hydroxypropan-2-yl)pyrimidin-5-yl)quinolin-4-yl)amino)-2,2-difluoroethyl)-4-fluorobenzamide], the negative-log IC50 (pIC50) under setting [1] was above 6.00.

In the case of `CC(C)(O)c1ncc(-c2nc3c(N[C@H](c4cc(C(=O)O)ccc4F)C(F)F)c(Cl)cnc3cc2F)cn1` [Example 485, (R)-3-(1-((3-chloro-7-fluoro-6-(2-(2-hydroxypropan-2-yl)pyrimidin-5-yl)-1,5-naphthyridin-4-yl)amino)-2,2-difluoroethyl)-4-fluorobenzoic acid], the pIC50 under setting [1] is 5.00 to 6.00. The same measure, in the same setting: in the case of `CC(Nc1c(Cl)cnc2c(Cl)cc(-c3cnc(N4CCNC(=O)C4)nc3)cc12)c1ccccc1F` (racemic) [Example 18, 4-(5-(3,8-dichloro-4-((1-(2-fluorophenyl)ethyl)amino)quinolin-6-yl)pyrimidin-2-yl)piperazin-2-one] it was 5.00 to 6.00; in that of `Cc1nc2ccccc2c(N[C@H](C)c2cc(-c3cncnc3)ccc2F)c1Cl` [Example 530, (R)-3-chloro-N-(1-(2-fluoro-5-(pyrimidin-5-yl)phenyl)ethyl)-2-methylquinolin-4-amine], above 6.00; in that of `COc1ccc(F)c([C@@H](C)Nc2c(Cl)c(C)nc3ccc(-c4cnc(C(C)(C)O)nc4)cc23)c1` [Example 326, (R)-2-(5-(3-chloro-4-((1-(2-fluoro-5-methoxyphenyl)ethyl)amino)-2-methylquinolin-6-yl)pyrimidin-2-yl)propan-2-ol], above 6.00. On the same count and under the same terms, then `CCC(Nc1c(Cl)cnc2ccccc12)c1ccccc1F` (centres unmarked) [Example 453, 3-chloro-N-(1-(2-fluorophenyl)propyl)quinolin-4-amine], with 5.00 to 6.00; and `CNC(=O)c1nc2ccc(-c3ccc(C#N)nc3)cc2c(Nc2cc(C)ccc2C)c1Cl` [Example 33, 3-chloro-6-(6-cyanopyridin-3-yl)-4-((2,5-dimethylphenyl)amino)-N-methylquinoline-2-carboxamide], with 5.00 to 6.00; and `C[C@@H](Nc1c(Cl)cnc2ccccc12)c1ccccc1C(F)(F)F` [Example 463, 3-chloro-N-(1-(2-(trifluoromethyl)phenyl)ethyl)quinolin-4-amine], with 4.60 to 5.00.
